Measurements from the supplement of paper PMC10307832.

How the values were obtained:
Experiment in all cases: relative viability (nuclei count vs DMSO), 5 days (fraction); higher = more cells survive
LOU-NH91 = system: LOU-NH91
How it was run: (§1)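 Values are medians from duplicate plates. Each reflects relative viability, defined as the nuclei count of treated wells over that of vehicle wells. Lung cancer cell lines in 1536-well plates were pin-tool dosed one day after seeding with one drug alone or with a fixed anchor-drug dose plus five library-drug doses (not always all listed) in √10 steps, then fixed, stained and imaged at 4× after 5 days.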

NCI-H441 = system: NCI-H441
How it was run: as §1

NCI-H3122 = system: NCI-H3122
How it was run: as §1

NCI-H727 = system: NCI-H727
How it was run: as §1

BEN = system: BEN
How it was run: as §1

NCI-H647 = system: NCI-H647
How it was run: as §1

NCI-H2126 = system: NCI-H2126
How it was run: as §1

NCI-H650 = system: NCI-H650
How it was run: as §1

NCI-H838 = system: NCI-H838
How it was run: as §1

NCI-H596 = system: NCI-H596
How it was run: as §1

NCI-H1993 = system: NCI-H1993
How it was run: as §1

LCLC-103H = system: LCLC-103H
How it was run: as §1

NCI-H2347 = system: NCI-H2347
How it was run: as §1

NCI-H2023 = system: NCI-H2023
How it was run: as §1

NCI-H1395 = system: NCI-H1395
How it was run: as §1

201T = system: 201T
How it was run: as §1

NCI-H2087 = system: NCI-H2087
How it was run: as §1

HARA = system: HARA
How it was run: as §1

NCI-H23 = system: NCI-H23
How it was run: as §1

EMC-BAC-2 = system: EMC-BAC-2
How it was run: as §1

## CC(=O)O[C@@]12CO[C@@H]1C[C@H](O)[C@@]1(C)C(=O)[C@H](O)C3=C(C)[C@@H](OC(=O)[C@H](O)[C@@H](NC(=O)OC(C)(C)C)c4ccccc4)C[C@@](O)([C@@H](OC(=O)c4ccccc4)[C@H]21)C3(C)C [Docetaxel] + COc1cc2c(Oc3ccc(NC(=O)C4(C(=O)Nc5ccc(F)cc5)CC4)cc3F)ccnc2cc1OCCCN1CCOCC1 [Foretinib] (partner 0.25 µM)
LOU-NH91; first compound 0.0002 µM
  relative viability: 0.936
LOU-NH91; first compound 0.000632 µM
  relative viability: 0.864
LOU-NH91; first compound 0.002 µM
  relative viability: 0.564
LOU-NH91; first compound 0.006325 µM
  relative viability: 0.334
LOU-NH91; first compound 0.02 µM
  relative viability: 0.284
NCI-H441; first compound 0.0002 µM
  relative viability: 1.12
NCI-H441; first compound 0.000632 µM
  relative viability: 0.725
NCI-H441; first compound 0.002 µM
  relative viability: 0.538
NCI-H441; first compound 0.006325 µM
  relative viability: 0.87
NCI-H3122; first compound 0.0002 µM
  relative viability: 0.993
NCI-H3122; first compound 0.000632 µM
  relative viability: 0.901
NCI-H3122; first compound 0.002 µM
  relative viability: 0.761
NCI-H3122; first compound 0.006325 µM
  relative viability: 0.16
NCI-H3122; first compound 0.02 µM
  relative viability: 0.106
NCI-H727; first compound 0.0002 µM
  relative viability: 0.834
NCI-H727; first compound 0.000632 µM
  relative viability: 0.693
NCI-H727; first compound 0.002 µM
  relative viability: 0.788
NCI-H727; first compound 0.006325 µM
  relative viability: 0.507
NCI-H727; first compound 0.02 µM
  relative viability: 0.346
BEN; first compound 0.0002 µM
  relative viability: 0.625
BEN; first compound 0.000632 µM
  relative viability: 0.926
BEN; first compound 0.002 µM
  relative viability: 0.606
BEN; first compound 0.006325 µM
  relative viability: 0.285
BEN; first compound 0.02 µM
  relative viability: 0.197
NCI-H647; first compound 0.0002 µM
  relative viability: 1.25
NCI-H647; first compound 0.000632 µM
  relative viability: 1.06
NCI-H647; first compound 0.002 µM
  relative viability: 0.179
NCI-H647; first compound 0.006325 µM
  relative viability: 0.182
NCI-H647; first compound 0.02 µM
  relative viability: 0.111
NCI-H2126; first compound 0.0002 µM
  relative viability: 1.08
NCI-H2126; first compound 0.000632 µM
  relative viability: 1.14
NCI-H2126; first compound 0.002 µM
  relative viability: 0.588
NCI-H2126; first compound 0.006325 µM
  relative viability: 0.456
NCI-H2126; first compound 0.02 µM
  relative viability: 0.228
NCI-H650; first compound 0.0002 µM
  relative viability: 0.958
NCI-H650; first compound 0.000632 µM
  relative viability: 0.921
NCI-H650; first compound 0.002 µM
  relative viability: 0.299
NCI-H650; first compound 0.006325 µM
  relative viability: 0.277
NCI-H650; first compound 0.02 µM
  relative viability: 0.218
NCI-H838; first compound 0.0002 µM
  relative viability: 0.98
NCI-H838; first compound 0.000632 µM
  relative viability: 1.03
NCI-H838; first compound 0.002 µM
  relative viability: 0.262
NCI-H838; first compound 0.006325 µM
  relative viability: 0.283
NCI-H838; first compound 0.02 µM
  relative viability: 0.162
NCI-H596; first compound 0.0002 µM
  relative viability: 0.901
NCI-H596; first compound 0.000632 µM
  relative viability: 0.51
NCI-H596; first compound 0.002 µM
  relative viability: 0.419
NCI-H596; first compound 0.006325 µM
  relative viability: 0.365
NCI-H596; first compound 0.02 µM
  relative viability: 0.217
NCI-H1993; first compound 0.0002 µM
  relative viability: 0.78
NCI-H1993; first compound 0.000632 µM
  relative viability: 0.803
NCI-H1993; first compound 0.002 µM
  relative viability: 0.659
NCI-H1993; first compound 0.006325 µM
  relative viability: 0.671
NCI-H1993; first compound 0.02 µM
  relative viability: 0.51
LCLC-103H; first compound 0.0002 µM
  relative viability: 0.674
LCLC-103H; first compound 0.000632 µM
  relative viability: 0.61
LCLC-103H; first compound 0.002 µM
  relative viability: 0.485
LCLC-103H; first compound 0.006325 µM
  relative viability: 0.339
LCLC-103H; first compound 0.02 µM
  relative viability: 0.272
NCI-H2347; first compound 0.0002 µM
  relative viability: 0.806
NCI-H2347; first compound 0.000632 µM
  relative viability: 0.815
NCI-H2347; first compound 0.002 µM
  relative viability: 0.541
NCI-H2347; first compound 0.006325 µM
  relative viability: 0.31
NCI-H2347; first compound 0.02 µM
  relative viability: 0.368
NCI-H2023; first compound 0.0002 µM
  relative viability: 0.735
NCI-H2023; first compound 0.000632 µM
  relative viability: 0.868
NCI-H2023; first compound 0.002 µM
  relative viability: 0.111
NCI-H2023; first compound 0.006325 µM
  relative viability: 0.102
NCI-H2023; first compound 0.02 µM
  relative viability: 0.0789
NCI-H1395; first compound 0.0002 µM
  relative viability: 0.883
NCI-H1395; first compound 0.000632 µM
  relative viability: 0.874
NCI-H1395; first compound 0.002 µM
  relative viability: 0.904
NCI-H1395; first compound 0.006325 µM
  relative viability: 0.456
NCI-H1395; first compound 0.02 µM
  relative viability: 0.342
201T; first compound 0.0002 µM
  relative viability: 1.15
201T; first compound 0.000632 µM
  relative viability: 0.712
201T; first compound 0.002 µM
  relative viability: 0.473
201T; first compound 0.006325 µM
  relative viability: 0.29
201T; first compound 0.02 µM
  relative viability: 0.213
NCI-H2087; first compound 0.0002 µM
  relative viability: 0.955
NCI-H2087; first compound 0.000632 µM
  relative viability: 0.477
NCI-H2087; first compound 0.002 µM
  relative viability: 0.249
NCI-H2087; first compound 0.006325 µM
  relative viability: 0.115
NCI-H2087; first compound 0.02 µM
  relative viability: 0.105
HARA; first compound 0.0002 µM
  relative viability: 0.709
HARA; first compound 0.000632 µM
  relative viability: 0.128
HARA; first compound 0.002 µM
  relative viability: 0.146
HARA; first compound 0.006325 µM
  relative viability: 0.0748
HARA; first compound 0.02 µM
  relative viability: 0.0559
NCI-H23; first compound 0.0002 µM
  relative viability: 0.964
NCI-H23; first compound 0.000632 µM
  relative viability: 0.859
NCI-H23; first compound 0.002 µM
  relative viability: 0.705
NCI-H23; first compound 0.006325 µM
  relative viability: 0.188
NCI-H23; first compound 0.02 µM
  relative viability: 0.147
EMC-BAC-2; first compound 0.0002 µM
  relative viability: 1.02
EMC-BAC-2; first compound 0.000632 µM
  relative viability: 0.948
EMC-BAC-2; first compound 0.002 µM
  relative viability: 0.36
EMC-BAC-2; first compound 0.006325 µM
  relative viability: 0.348
EMC-BAC-2; first compound 0.02 µM
  relative viability: 0.205
